Experimental data published in PMC11769347, “Development of Novel Fluticasone/Salmeterol/Tiotropium-Loaded Dry Powder Inhaler and Bioequivalence Assessment to Commercial Products in Rats” (Pharmaceutics, 2025).

Columns and labels:
Assay type in all cases: physicochemical
[1] = Dissolution of fine particles less than 5 μm in simulated lung fluid; settings: 37 °C, 75 rpm; for dissolved: within 15 min
Description: To collect the fine particles less than 5 μm on a glass fiber filter, abbreviated ACI was used [17, 18]. The micronized FP/SX/TB blend was dispersed at a flow rate of 60 L/min, and 4.0 L of air was withdrawn. The glass fiber filter with collected fine particles was assembled into a filter holder (Copley Scientific, Nottingham, UK). […] The filter holder was placed in a dissolution vessel, and 500 mL of simulated lung fluid was used as dissolution media [19]. The dissolution media was maintained at a temperature of 37 ± 0.5 °C with an agitation speed of 75 rpm. At a predetermined time, 2 mL of the media was collected and diluted with 0.1 M HCl, edetate disodium dihydrate, and methanol to achieve a ratio of 900:50:0.075:50. The diluted solution was filtered through a 0.45 μm PVDC membrane filter and analyzed by HPLC as described in Section 2.5.

[2] = Particle size by laser diffraction (HELOS) after air jet milling
Description: The drug was supplied into a jet mill at a rate of 10 g/min with injection air and grinding air pressures set at among 1–4 bars. The particle size of the micronized TB was measured using high-resolution laser diffraction spectroscopy (HELOS; Sympatec, Clausthal-Zellerfeld, Germany).

[3] = Effect of capsule components on drug stability (degraded compounds by HPLC); settings: in various capsules, 60 °C for 2 weeks; % of the initial amount
Description: The effect of capsule components on the stability of FP, SX, or TB was investigated. The main materials and gelling agent of the capsule are described in Table 2. Each capsule was packed in an aluminum–aluminum blister and stored at 60 °C for 2 weeks. For comparison, commercial products are stored under the same conditions. Degraded compounds of FP, SX, or TB were analyzed as described in Section 2.5.
Degradation compounds of FP, SX, or TB were quantified using a high-performance liquid chromatography (HPLC) system (Hitachi, Tokyo, Japan) comprising a 5110 pump, 5430 detectors, a 5310 column oven, and 5210 autosamplers. While FP and SX were analyzed together, TB was assessed using a separate set of analytical conditions. Inertsil® ODS-2 column (4.6 mm × 250 mm, 5 μm) was used to analyze the degradation compounds of FP and SX. The powder, equivalent to 2.5 mg of FP and 0.725 mg of SX, was introduced into 5 mL of a mixture consisting of phosphoric acid, methanol, and distilled water in a ratio of 0.05:89.95:10. The mixture solution was vortexed for 30 min and passed through a 0.45 μm membrane filter. Fifty microliter aliquots of the filtered solution were injected and detected at 228 nm. […] Fifteen microliter aliquots of the sample solution were injected into the column at 50 °C and monitored at […] with a flow rate of 1.2 mL/min.

[4] = powder without the air jet milling process (as from the manufacturer)

| SMILES | maximum dissolution [1] | particle size [2, 4] | total degraded compound of FP [3] | dissolved [1] | particle size ([2]; air jet mill condition I: injection air pressure 2 bar, grinding air pressure 1 bar) [μm] | particle size ([2]; air jet mill condition II: injection air pressure 3 bar, grinding air pressure 2 bar) [μm] | particle size ([2]; air jet mill condition III: injection air pressure 4 bar, grinding air pressure 3 bar) [μm] |
| --- | --- | --- | --- | --- | --- | --- | --- |
| CCC(=O)O[C@]1(C(=O)SCF)[C@H](C)C[C@H]2[C@@H]3C[C@H](F)C4=CC(=O)C=C[C@]4(C)[C@@]3(F)[C@@H](O)C[C@@]21C [FP, fluticasone propionate] | approximately 20% | less than 5 μm | less than 0.7% | – | – | – | – |
| OCc1cc(C(O)CNCCCCCCOCCCCc2ccccc2)ccc1O (stereo not shown) [SX, salmeterol xinafoate] | – | less than 5 μm | – | more than 85% | – | – | – |
| C[N+]1(C)[C@@H]2C[C@@H](OC(=O)C(O)(c3cccs3)c3cccs3)C[C@H]1[C@@H]1O[C@@H]12 [TB, tiotropium bromide] | – | 6.1 ± 0.8 μm | – | more than 85% | 3.1 ± 0.3 | 2.5 ± 0.1 | 1.4 ± 0.3 |
